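Where inhibition never reached the appropriate level, the endpoint shown equals the highest concentration tested. Otherwise, values were interpolated linearly from a five-concentration, 48-hour dose response in 96-well plates. Abbreviation: GI50, concentration required for 50% inhibition of growth. TGI denotes the concentration required for complete inhibition of growth.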
Columns and labels:
Experiment in all cases: NCI-60 cell line screen, 48 h
LOX IMVI melanoma = test system: LOX IMVI melanoma
HL-60(TB) leukemia = test system: HL-60(TB) leukemia
MALME-3M melanoma = test system: MALME-3M melanoma
EKVX NSCLC = test system: EKVX NSCLC
RPMI-8226 leukemia = test system: RPMI-8226 leukemia
HOP-92 NSCLC = test system: HOP-92 NSCLC
TK-10 renal = test system: TK-10 renal
NCI-H522 lung = test system: NCI-H522 lung
OVCAR-3 ovarian = test system: OVCAR-3 ovarian
M14 melanoma = test system: M14 melanoma

SMILES | GI50 (LOX IMVI melanoma) [µM] | TGI (LOX IMVI melanoma) [µM] | GI50 (HL-60(TB) leukemia) [µM] | TGI (HL-60(TB) leukemia) [µM] | GI50 (MALME-3M melanoma) [µM] | TGI (MALME-3M melanoma) [µM] | GI50 (EKVX NSCLC) [µM] | TGI (EKVX NSCLC) [µM] | GI50 (RPMI-8226 leukemia) [µM] | TGI (RPMI-8226 leukemia) [µM] | GI50 (HOP-92 NSCLC) [µM] | TGI (HOP-92 NSCLC) [µM] | GI50 (TK-10 renal) [µM] | TGI (TK-10 renal) [µM] | GI50 (NCI-H522 lung) [µM] | TGI (NCI-H522 lung) [µM] | GI50 (OVCAR-3 ovarian) [µM] | TGI (OVCAR-3 ovarian) [µM] | GI50 (M14 melanoma) [µM] | TGI (M14 melanoma) [µM]
CCOC(=O)c1c[nH]c2c(OCc3ccccc3)c3ccccc3c(O)c2c1=O | 6.83 | 33 | 40.7 | > 100 | 5.63 | 26.6 | 6.98 | 52.7 | 26.9 | > 100 | 27 | 93.5 | 16 | 45.5 | 13.3 | > 83.9 | 11.1 | 51 | 11.3 | > 59.4
C(=N/Nc1ncnc2nc[nH]c12)/c1ccccn1 | 0.525 | > 100 | 1.01 | 7.07 | 0.268 | 5.62 | 0.386 | 40.5 | 3.9 | > 100 | 3.14 | 8.72 | 0.452 | > 100 | 0.551 | > 100 | 0.421 | > 47 | 0.766 | 3.63
CC(=O)Oc1ccc2ccc(=O)oc2c1OC(C)=O | – | > 100 | – | 38.1 | – | > 100 | – | > 100 | – | > 100 | – | > 100 | – | > 100 | – | > 100 | – | > 100 | – | > 100
C[N+](C)(C)CCC(=O)N1C/C(=C\c2ccccc2)C(=O)/C(=C/c2ccccc2)C1 | – | 3.46 | – | 9.44 | – | 30.4 | – | 35.9 | – | 2.3 | – | 38.7 | – | 23.6 | – | 5.42 | – | 9.31 | – | 7.54
CCOC(=O)C1=C(N)Oc2c(sc3c(C)cccc23)C1c1ccc(Cl)cc1 (stereo not given) | 3.03 | 13.7 | 2.56 | 7.81 | 5.19 | 19.6 | 3.75 | 17.1 | 3.26 | 13.1 | 3.83 | 20.7 | 12.6 | 29.1 | 1.22 | 6.28 | 2.69 | 9.61 | 2.46 | 11.2
O=C(CC1(O)C(=O)Nc2c(Cl)cccc21)c1ccccc1 (stereo not given) | – | > 100 | – | > 100 | – | > 100 | – | > 100 | – | > 100 | – | > 100 | – | > 100 | – | > 100 | – | > 100 | – | > 100
CC(C)c1ccc2c(N=Nc3ccc(S(N)(=O)=O)cc3)c(O)[nH]c2c1 | 9.01 | > 25 | > 25 | > 25 | 12.4 | > 25 | > 16.6 | > 25 | > 25 | > 25 | > 15.9 | > 25 | > 12.1 | > 24 | 7.08 | > 17.8 | 6.21 | 18.6 | > 25 | > 25

From PubChem BioAssay (NCI)
